Measurements as given in patent US20260274814A1, “THIENYL COMPOUNDS FOR THE TREATMENT OF A CENTRAL NERVOUS SYSTEM DISEASE OR DISORDER” (Coreterra Therapeutics, Inc., priority 2023, published 2026).
Counter-ions that a name gives are not always drawn.

Test system: mice
Assay: Neuropharmacological Assay (SmartCube): automated behavioral signature of compound-treated mice compared with a database of reference drug classes
Assay type: in vivo
Settings: for MED (minimal effective dose) / minimal effective dose: dose having 45% or more total activity in SmartCube, i.p., if only one dose was tested, that dose is shown; for AD / AG / AN / AP / AX / CE / HL / MS / PS / SH / UK: probability that activity matches this class of agents, 3.0 mg/kg i.p., 15 min before test; for minimal effective dose: Mus musculus, ip, read-out: MED (minimal effective dose)
Excerpt: Neurosci. 2011 Sep. 9; 5: 103 (doi: 10.3389/fnins.2011.00103) (“Roberds”). As reported in Roberds, because psychiatric diseases generally result from disorders of cell-cell communication or circuitry, intact systems are useful in detecting improvement in disease-relevant endpoints. These endpoints are typically behavioral in nature, often requiring human observation and interpretation. To facilitate testing of multiple compounds for behavioral effects relevant to psychiatric disease, PsychoGenics, Inc. (Tarrytown, NY, “PGI”) developed SmartCube™ an automated system in which behaviors of compound-treated mice are captured by digital video and analyzed with computer algorithms. (D. Brunner et al. Drug Discov. Today 2002, 7:S107-S112). PGI Analytical Systems uses data from SmartCube™ to compare the behavioral signature of a test compound to a database of behavioral signatures obtained using a large set of diverse reference compounds. (The composition of the database as well as validation of the method is further described in Roberds). In this way, the neuropharmacological effects of a test compound can be predicted by similarity to major classes of compounds, such as antipsychotics, anxiolytics and antidepressants.
The SmartCube™ system produces an activity signature indicating the probability that the activity of the test compound at the administered dose matches a given class of neuropharmacological agents. (See, e.g., Roberds, FIGS. 2 and 3). The test compound is simultaneously compared against multiple classes of agents; thus, a separate probability is generated for each behavioral effect measured (e.g., anxiolytic activity, analgesic activity, etc.). In table 2 below, these probabilities are reported for each behavioral effect measured as described in Table 1 below.
Provided compounds were dissolved in a mixture of Pharmasolve™ (N-methyl-2-pyrrolidone), polyethylene glycol and propylene glycol, and were injected i.p. 15 min. before the behavioral test. For each compound, injections were administered at 3 different doses. For each behavioral effect measured, results for the 3.0 mg/kg dose are presented. The potency of many of the compounds in the table was also determined in the SmartCube™ system. Test compounds were routinely examined at dose levels of 0.3, 1, 3 and 10 mg per kg (mpk), although the dose range was increased or decreased, if necessary, to obtain a full dose response curve. A compound's minimal effective dose (MED) is a measure of the compound's potency. The MED was defined as the dose (in mpk) having 45% or more total activity in SmartCube. If only one dose was tested, that dose is shown in the MED column of Table 2 even though the dose is not known to be the MED.

Compound | MED (minimal effective dose) | AD | AG | AN | AP | AX | CE | HL | MS | PS | SH | UK (hydrochloride, 3 mg/kg) | minimal effective dose | UK | AD (hydrochloride, 3 mg/kg) | AX (hydrochloride, 3 mg/kg) | HL (hydrochloride, 3 mg/kg) | PS (hydrochloride, 3 mg/kg) | MED (minimal effective dose) (hydrochloride)
CCc1sc(CC)c2c1CCC(NC)C2 (single isomer, unassigned) [Compound 118, 1,3-diethyl-N-methyl-4,5,6,7-tetrahydro-2-benzothiophen-5-amine hydrochloride] | >3 mpk | ND (^ <4%) | ND (^ <4%) | ND (^ <4%) | ND (^ <4%) | ND (^ <4%) | ND (^ <4%) | ND (^ <4%) | ND (^ <4%) | ND (^ <4%) | ND (^ <4%) | + (≥4%) |  |  |  |  |  |  | 
CN(C)C1(C)CCc2ccsc2C1 (single isomer, unassigned) [Compound 119, N, N, 6-trimethyl-5,7-dihydro-4H-benzothiophen-6-amine hydrochloride] |  | ND (^ <4%) | ND (^ <4%) | ND (^ <4%) | ND (^ <4%) | ++++ (≥74%) | ND (^ <4%) | ND (^ <4%) | ND (^ <4%) | ND (^ <4%) | ND (^ <4%) |  | 3 mg/kg | ND (^ <4%) |  |  |  |  | 
CN(C)C1CCc2csc(C(F)(F)F)c2C1 (single isomer, unassigned) [Compound 120, N,N-dimethyl-3-(trifluoromethyl)-4,5,6,7-tetrahydro-2-benzothiophen-5-amine hydrochloride] |  | ND (^ <4%) | ND (^ <4%) | ND (^ <4%) | ++++ (≥74%) | ND (^ <4%) | ND (^ <4%) | ND (^ <4%) | ND (^ <4%) | ND (^ <4%) | ND (^ <4%) |  | 3 mg/kg | ND (^ <4%) |  |  |  |  | 
CN(C)C1(C)CCc2cscc2C1 (single isomer, unassigned) [Compound 121, N,N, 5-trimethyl-6,7-dihydro-4H-2-benzothiophen-5-amine hydrochloride] |  | ND (^ <4%) | ND (^ <4%) | ND (^ <4%) | + (≥4%) | + (≥4%) | ND (^ <4%) | ND (^ <4%) | ND (^ <4%) | ND (^ <4%) | ND (^ <4%) |  | 3 mg/kg | +++ (≥49%) |  |  |  |  | 
CC1(N)CCc2cscc2C1.Cl (single isomer, unassigned) [Compound 122, 5-methyl-6,7-dihydro-4H-2-benzothiophen-5-amine hydrochloride] |  |  | ND (^ <4%) | ND (^ <4%) | ND (^ <4%) |  | ND (^ <4%) |  | ND (^ <4%) |  | ND (^ <4%) |  | 1 mg/kg | ND (^ <4%) | +++ (≥49%) | + (≥4%) | ND (^ <4%) | ND (^ <4%) | 
CC1(N)CCc2cscc2C1.Cl (single isomer, unassigned) [Compound 123, 5-methyl-6,7-dihydro-4H-2-benzothiophen-5-amine hydrochloride] | 1 mpk |  | ND (^ <4%) | ND (^ <4%) | ND (^ <4%) |  | ND (^ <4%) |  | ND (^ <4%) |  | ND (^ <4%) |  |  | ND (^ <4%) | + (≥4%) | ND (^ <4%) | ++ (≥24%) | ++ (≥24%) | 
Cl.c1scc2c1CCC(NC1CC1)C2 (single isomer, unassigned) [Compound 124, N-cyclopropyl-4,5,6,7-tetrahydro-2-benzothiophen-5-amine hydrochloride] |  |  | ND (^ <4%) | ND (^ <4%) | ND (^ <4%) | ND (^ <4%) | ND (^ <4%) | ND (^ <4%) | ND (^ <4%) | ND (^ <4%) | ND (^ <4%) | +++ (≥49%) |  |  | ND (^ <4%) |  |  |  | 3 mpk
Cl.c1scc2c1CCC(NC1CC1)C2 (single isomer, unassigned) [Compound 125, N-cyclopropyl-4,5,6,7-tetrahydro-2-benzothiophen-5-amine hydrochloride] |  |  | ND (^ <4%) | ND (^ <4%) | ND (^ <4%) | ND (^ <4%) | ND (^ <4%) | ND (^ <4%) | ND (^ <4%) | ND (^ <4%) | ND (^ <4%) | ND (^ <4%) |  |  | +++ (≥49%) |  |  |  | 0.3 mpk
Cl.FC1(F)CC(NC2CCc3cscc3C2)C1 (single isomer, unassigned) [Compound 126, N-(3,3-difluorocyclobutyl)-4,5,6,7-tetrahydro-2-benzothiophen-5-amine hydrochloride] |  | ND (^ <4%) | ND (^ <4%) | ND (^ <4%) | ND (^ <4%) | ND (^ <4%) | ND (^ <4%) | ND (^ <4%) | ND (^ <4%) | ND (^ <4%) | ND (^ <4%) |  | > 30 mg/kg | ND (^ <4%) |  |  |  |  | 
Cl.FC1(F)CC(NC2CCc3cscc3C2)C1 (single isomer, unassigned) [Compound 127, N-(3,3-difluorocyclobutyl)-4,5,6,7-tetrahydro-2-benzothiophen-5-amine hydrochloride] |  | ND (^ <4%) | ND (^ <4%) | ND (^ <4%) | ND (^ <4%) | ND (^ <4%) | ND (^ <4%) | ND (^ <4%) | ND (^ <4%) | ND (^ <4%) | ND (^ <4%) |  |  | ND (^ <4%) |  |  |  |  | 30 mpk
c1scc2c1CCC(NC1COC1)C2 (single isomer, unassigned) [Compound 128, N-(4,5,6,7-tetrahydro-2-benzothiophen-5-yl)oxetan-3-amine] |  | ND (^ <4%) | ND (^ <4%) | ND (^ <4%) | ND (^ <4%) | ND (^ <4%) | ND (^ <4%) | ND (^ <4%) | ND (^ <4%) | ND (^ <4%) | ND (^ <4%) |  | 10 mg/kg | + (≥4%) |  |  |  |  | 
c1scc2c1CCC(NC1COC1)C2 (single isomer, unassigned) [Compound 129, N-(4,5,6,7-tetrahydro-2-benzothiophen-5-yl)oxetan-3-amine] | 10 mpk | ND (^ <4%) |  |  |  |  |  |  |  |  |  |  |  | + (≥4%) |  |  |  |  | 
